# Experimental data as given in publication PMC10762035, “Molecular basis of human trace amine-associated receptor 1 activation” (Nature Communications, 2024).
# Positions count from the first letter of the chain named. Values joined by “and” are separate entries in the source; they are usually repeats but may differ in a detail not shown here. Equal values may be shown once. Read-outs that look alike come from different tables or passages of the source.
# Experiments:
# hTA1 C88/178S = target: T1, hTA1 C88/178S (Homo sapiens, UniProt Q96RJ0, C178S/C88S); assay: GloSensor cAMP accumulation assay, C88S/C178S double mutant; assay type: cell-based; details: for Normalized Luminescence Counts (N=2): log[Compound], single replicate values
# T1 construct: expressed in transfected cells; host or cells: HEK293T
# T1 sequence (Q96RJ0 1-339 C88S/C178S): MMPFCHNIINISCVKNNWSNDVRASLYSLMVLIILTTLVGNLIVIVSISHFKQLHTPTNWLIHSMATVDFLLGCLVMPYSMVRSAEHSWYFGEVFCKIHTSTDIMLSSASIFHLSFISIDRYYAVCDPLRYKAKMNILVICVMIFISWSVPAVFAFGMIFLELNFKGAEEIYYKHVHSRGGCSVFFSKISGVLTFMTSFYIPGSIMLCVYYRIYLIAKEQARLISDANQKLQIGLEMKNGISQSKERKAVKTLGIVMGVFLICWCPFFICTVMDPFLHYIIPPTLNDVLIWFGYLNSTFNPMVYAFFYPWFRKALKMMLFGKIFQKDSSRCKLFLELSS
# hTA1 = target: T2, hTA1 (Homo sapiens, UniProt Q96RJ0); assay: GloSensor cAMP accumulation assay, concentration response, wild-type hTA1 in transfected HEK293T cells; assay type: cell-based; details: for Emax: HEK-293T; for Dose-response curves for asenapine vs endogenous trace amines: log[Compound], replicate values (N=2);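 on all read-outs here: luminescence read after 30 min compound exposure at room temperature in cells preloaded with D-Luciferin, reflecting Gs-driven cAMP rise, efficacy scaled to the maximal β-PEA response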
# T2 construct: expressed in transfected cells; host or cells: HEK293T
# T2 sequence (Q96RJ0 1-339): T1 sequence (Q96RJ0 1-339 C88S/C178S) with S88C, S178C
# [1] = C88S, C178S, each row is one independent experiment, 3 replicates
structure (smiles),measurement,setting,value
"NCCc1ccc(O)cc1 [TYR, tyramine]",EC50,"hTA1 C88/178S; C88/178S, n=2, read-out: EC50",516 nM
same,"ΔEmax values (each mutant value - WT average), Mean",hTA1 C88/178S; [1],5.171 and -4.429
same,"ΔpEC50 values (each mutant value - WT average), Mean",hTA1 C88/178S; [1],-0.1652 and -0.02439
same,EC50,"hTA1 C88/178S; C88S, C178S, each row is one independent experiment, 3 replicates, read-out: pEC50 values, Mean (converted)",607 nM and 439 nM
same,Normalized Luminescence Counts (N=2),"hTA1 C88/178S; C88S, C178S, M = -5",80.5108 and 118.73 and 96.3411 and 73.7167 and 119.633 and 101.508
same,Normalized Luminescence Counts (N=2),"hTA1 C88/178S; C88S, C178S, M = -5.522",83.5638 and 94.9277 and 84.0161 and 70.847 and 65.5606 and 81.5707
same,Normalized Luminescence Counts (N=2),"hTA1 C88/178S; C88S, C178S, M = -6",61.2318 and 70.3907 and 58.4615 and 74.6229 and 67.8262 and 50.6077
same,Normalized Luminescence Counts (N=2),"hTA1 C88/178S; C88S, C178S, M = -6.522",35.2248 and 33.0764 and 35.0552 and 41.5453 and 51.665 and 30.8216
same,Normalized Luminescence Counts (N=2),"hTA1 C88/178S; C88S, C178S, M = -7",17.4722 and 16.0588 and 18.7726 and 21.6082 and 20.853 and 15.4156
same,Normalized Luminescence Counts (N=2),"hTA1 C88/178S; C88S, C178S, M = -7.522",4.582 and 7.069 and 6.674 and 4.541 and 4.692 and 3.332
same,Normalized Luminescence Counts (N=2),"hTA1 C88/178S; C88S, C178S, M = -8",0.3416 and 1.077 and 0.3981 and 2.124 and 2.577 and 4.239
same,Normalized Luminescence Counts (N=2),"hTA1 C88/178S; C88S, C178S, M = -8.522",0.2285 and 0.4547 and 1.1331 and 0.9158 and 0.6137 and 2.577
same,Normalized Luminescence Counts (N=2),"hTA1 C88/178S; C88S, C178S, M = -9",-0.6195 and -0.1107 and 0.3416 and -1.501 and -1.35 and 3.6345
same,Normalized Luminescence Counts (N=2),"hTA1 C88/178S; C88S, C178S, M = -9.522",-0.5065 and -0.563 and -0.05417 and -0.8967 (2×) and -1.652
same,Normalized Luminescence Counts (N=2),"hTA1 C88/178S; C88S, C178S, M = -10",-0.1107 and -0.9588 (2×) and -1.35 and -0.4436 and -0.1415
same,Normalized Luminescence Counts (N=2),"hTA1 C88/178S; C88S, C178S, M = -10.522",-0.6195 and -0.1672 and 0.0589 and -1.954 and -1.048 and 1.067
same,Normalized Luminescence Counts (N=2),"hTA1 C88/178S; C88S, C178S, M = -11",-0.05417 and 0.5677 and 0.3981 and -1.652 and -0.8967 and 0.7648
same,Normalized Luminescence Counts (N=2),"hTA1 C88/178S; C88S, C178S, M = -11.522",0.7373 and 0.9635 and 0.285 and -0.8967 (2×) and 0.1606
same,Normalized Luminescence Counts (N=2),"hTA1 C88/178S; C88S, C178S, M = -12",-0.563 and 1.02 and 0.7939 and -0.1415 and -1.048 and 0.7648
same,Normalized Luminescence Counts (N=2),"hTA1 C88/178S; C88S, C178S, M = -12.522",0.2285 and 0.8504 and 0.3981 and -0.8967 and -0.4436 and -1.199
same,"Emax values, Mean","hTA1 C88/178S; C88S, C178S, normalized (β-PEA = 100), each row is one independent experiment, 3 replicates",104.155 and 94.5547
same,Emax,hTA1 C88/178S; read-out: Span ± SEM (Emax normalized to β-PEA),99.3 ± 4.8%
same,Emax,hTA1,99%
same,Emax,"hTA1; WT hTA1, β-PEA = 100, average of the two experiments, read-out: Emax values, Avg",99%
same,Emax,"hTA1; WT hTA1, β-PEA = 100, each line an independent experiment, 3 replicates, read-out: Emax values (Mean)",98.7%
same,"Emax values, Mean","hTA1; WT hTA1, β-PEA = 100, each line an independent experiment, 3 replicates",99.2414
same,"Emax values, Avg","hTA1; WT, average of the experiments, β-PEA = 100",98.98
same,"Emax values, Avg","hTA1; WT, average of the two experiments",98.98
same,"Emax values, Mean","hTA1; WT, mean of each independent experiment (3 replicates), β-PEA = 100",98.7253 and 99.2414
same,"Emax values, Mean","hTA1; WT, single experiments (3 replicates each), β-PEA = 100",98.7253 and 99.2414
same,Dose-response curves for asenapine vs endogenous trace amines,hTA1; M = -5,87.8798 and 96.6135 and 100.84 and 85.1295 and 110.033 and 96.1011
same,Dose-response curves for asenapine vs endogenous trace amines,hTA1; M = -5.522,78.3008 and 89.6171 and 91.9649 and 78.2527 and 93.1412 and 82.5257
same,Dose-response curves for asenapine vs endogenous trace amines,hTA1; M = -6,74.2157 and 61.4437 and 71.9149 and 59.67 and 72.4888 and 65.1224
same,Dose-response curves for asenapine vs endogenous trace amines,hTA1; M = -6.522,42.6615 and 39.1398 and 48.3901 and 34.5221 and 51.4135 and 39.5962
same,Dose-response curves for asenapine vs endogenous trace amines,hTA1; M = -7,13.8777 and 16.742 and 21.1088 and 17.6752 and 31.7847 and 17.7865
same,Dose-response curves for asenapine vs endogenous trace amines,hTA1; M = -7.522,4.58 and 3.454 and 4.252 and 2.943 and 7.126 and 3.989
same,Dose-response curves for asenapine vs endogenous trace amines,hTA1; M = -8,2.796 and 3.5 and 3.313 and 3.588 and 4.545 and 4.122
same,Dose-response curves for asenapine vs endogenous trace amines,hTA1; M = -8.522,0.3075 and 0.6831 and 1.294 and -0.5515 and 0.6503 and 0.4723
same,Dose-response curves for asenapine vs endogenous trace amines,hTA1; M = -9,-0.6786 and 0.2605 and 0.02574 and -1.508 and -0.9298 and -0.774
same,Dose-response curves for asenapine vs endogenous trace amines,hTA1; M = -9.522,-0.5847 and -0.9603 and -0.3499 and -2.02 and -0.7963 and -1.241
same,Dose-response curves for asenapine vs endogenous trace amines,hTA1; M = -10,-0.1151 and -1.148 and -0.9134 and -1.041 and -0.1064 and -1.063
